What was measured:
Serine protease 1 = Serine protease 1 (Homo sapiens, UniProt P07477); assay: Amidolytic Activity Assay (Trypsin); conditions: pH 7.5
Experimental: Determination of amidolytic activity was performed as described previously [Okada et al., Chem. Pharm. Bull., 36:1289-1297]. Detailed description of the method is given below. […]

Plasminogen = Plasminogen (Homo sapiens, UniProt P00747); assay: Amidolytic Activity Assay (Plasmin); conditions: pH 7.4
Experimental: Determination of amidolytic activity was performed as described previously [Okada et al., Chem. Pharm. Bull., 36:1289-1297]. Detailed description of the method is given below. To 0.2 cm3 of examined compound (1−11; 0.15 M NaCl as control), buffer, and 0.1 cm^3 of enzyme solution was added: tris buffer−0.5 cm^3 (pH = 7.4); enzyme: plasmin (0.4 unit/cm^3); synthetic substrate: S-2251 (0.2 cm^3, 3 mM/dm^3).

Chain of Serine protease 1 (P07477 whole entry): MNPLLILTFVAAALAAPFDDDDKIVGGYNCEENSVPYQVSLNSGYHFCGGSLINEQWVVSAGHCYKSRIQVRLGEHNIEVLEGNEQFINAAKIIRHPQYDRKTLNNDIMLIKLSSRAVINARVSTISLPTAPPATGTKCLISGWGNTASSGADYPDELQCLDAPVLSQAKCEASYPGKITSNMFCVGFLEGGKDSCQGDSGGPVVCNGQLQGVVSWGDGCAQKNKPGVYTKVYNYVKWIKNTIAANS
Chain of Plasminogen (P00747 97-580 limits assumed): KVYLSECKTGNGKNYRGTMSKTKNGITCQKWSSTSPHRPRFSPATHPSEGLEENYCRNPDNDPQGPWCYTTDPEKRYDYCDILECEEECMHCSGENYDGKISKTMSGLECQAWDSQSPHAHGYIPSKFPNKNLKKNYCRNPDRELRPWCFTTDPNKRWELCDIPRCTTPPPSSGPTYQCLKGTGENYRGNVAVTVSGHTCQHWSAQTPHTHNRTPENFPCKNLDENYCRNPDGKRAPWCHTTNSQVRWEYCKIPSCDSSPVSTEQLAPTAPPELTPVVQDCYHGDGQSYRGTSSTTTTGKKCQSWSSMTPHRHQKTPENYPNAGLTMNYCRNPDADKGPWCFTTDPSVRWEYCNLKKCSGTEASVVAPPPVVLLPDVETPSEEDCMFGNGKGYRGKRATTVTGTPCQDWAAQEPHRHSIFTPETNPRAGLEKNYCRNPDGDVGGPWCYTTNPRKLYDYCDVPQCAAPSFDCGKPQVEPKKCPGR
Chain of Plasminogen (P00747 581-810 limits assumed): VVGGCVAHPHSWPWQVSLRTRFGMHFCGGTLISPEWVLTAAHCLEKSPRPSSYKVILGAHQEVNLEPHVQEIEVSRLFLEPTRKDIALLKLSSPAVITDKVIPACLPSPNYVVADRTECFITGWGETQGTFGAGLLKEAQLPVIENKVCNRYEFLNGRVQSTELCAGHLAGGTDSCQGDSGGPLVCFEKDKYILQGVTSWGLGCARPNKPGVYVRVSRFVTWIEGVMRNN

Ki (Serine protease 1) | Ki (Plasminogen) | SMILES
10 µM |  | C[C@H](NC(=O)[C@H](N)CO)C(=O)N[C@@H](CCCNC(=N)N)C(=O)NCCCCCCCCN [H-D-Ser-Ala-Arg-NH-(CH2)8-NH2 (7)]
5 µM | 90 µM | C[C@H](NC(=O)[C@H](N)CO)C(=O)N[C@@H](CCCNC(=N)N)C(=O)NCCCCCCCCCN [H-D-Ser-Ala-Arg-NH-(CH2)9-NH2 (8)]
30 µM | 364 µM | C[C@H](NC(=O)[C@H](N)CO)C(=O)N[C@@H](CCCNC(=N)N)C(=O)NCCCCCCCN [H-D-Ser-Ala-Arg-NH-(CH2)7-NH2 (6)]
2.5 µM | 181 µM | C[C@H](NC(=O)[C@H](N)CO)C(=O)N[C@@H](CCCNC(=N)N)C(=O)NCCCCCCN [H-D-Ser-Ala-Arg-NH-(CH2)6-NH2 (5)]

Second part, the molecule before the results:

SMILES | Ki (Serine protease 1) | Ki (Plasminogen)
C[C@H](NC(=O)[C@H](N)CO)C(=O)N[C@@H](CCCNC(=N)N)C(=O)NCCCO [H-D-Ser-Ala-Arg-NH-(CH2)3-OH (10)] | 15 µM | 1090 µM
C[C@H](NC(=O)[C@H](N)CO)C(=O)N[C@@H](CCCNC(=N)N)C(=O)NCCCCCN [H-D-Ser-Ala-Arg-NH-(CH2)5-NH2 (4)] |  | 37 µM
C[C@H](NC(=O)[C@H](N)CO)C(=O)N[C@@H](CCCNC(=N)N)C(=O)NCCCCO [H-D-Ser-Ala-Arg-NH-(CH2)4-OH (11)] | 10 µM | 545 µM
C[C@H](NC(=O)[C@H](N)CO)C(=O)N[C@@H](CCCNC(=N)N)C(=O)NCCO [H-D-Ser-Ala-Arg-NH-(CH2)2-OH (9)] |  | 727 µM

Reference: BindingDB's records for doi:10.3109/14756360903049042 (Medical University of Bialystok, 2010)
